From PubChem BioAssay AID330 (DTP/NCI, 2004)
“And” between values parts separate entries of the source, which are not always exact repeats. Identical values can stand only once. Toxic doses and inconclusive results are not listed.

System: P388 leukemia ip, CD2F1 mice, survival T/C
Assay: NCI In Vivo Anticancer Drug Screen. Data for tumor model P388 Leukemia (intraperitoneal) in CD2F1 (CDF1) mice
Settings: endpoint: median survival time, higher = longer survival
Outline: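 Mice carrying the transplanted tumor received test compound or vehicle. Survival was recorded in each group, and the value is the treated-group measurement divided by that of the vehicle-treated control group.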

[1] = dose: 12.5 mg/kg/injection, schedule: Q01DX009 (ip), vehicle: saline with Tween-80
[2] = dose: 50.0 mg/kg/injection, schedule: Q01DX009 (ip), vehicle: saline
[3] = dose: 100.0 mg/kg/injection, schedule: Q01DX009 (ip), vehicle: saline

For `Nc1ncnc2c1ncn2C1OC(CO)C(O)C1O` (stereo not given), the T/C (dose: 1.25 mg/kg/injection, schedule: Q03HX016 (ip), vehicle: saline) was 113 % of control, the T/C (dose: 1.56 mg/kg/injection, schedule: Q01DX009 (ip), vehicle: saline) was 116 % of control and the T/C (dose: 2.5 mg/kg/injection, schedule: Q03HX016 (ip), vehicle: saline) was 122 % of control. For the same molecule, the T/C (dose: 3.12 mg/kg/injection, schedule: Q01DX009 (ip), vehicle: saline) was 122 % of control, the T/C (dose: 6.25 mg/kg/injection, schedule: Q01DX009 (ip), vehicle: saline) was 119 % of control and 104 % of control and the T/C (dose: 9.0 mg/kg/injection, schedule: Q01DX009 (ip), vehicle: saline with Tween-80) was 114 % of control. For the same molecule, the T/C [1] was 118 % of control, the T/C (dose: 12.5 mg/kg/injection, schedule: Q01DX009 (ip), vehicle: saline) was 103 % of control and the T/C (dose: 12.5 mg/kg/injection, schedule: Q03HX016 (ip), vehicle: Klucel (hydroxypropylcellulose) (HPC)) was 110 % of control. The T/C (dose: 14.0 mg/kg/injection, schedule: Q01DX009 (ip), vehicle: saline with Tween-80) was 120 % of control, the T/C (dose: 20.0 mg/kg/injection, schedule: Q01DX009 (ip), vehicle: saline) was 103 % of control and the T/C (dose: 20.0 mg/kg/injection, schedule: Q03HX016 (ip), vehicle: saline) was 122 % of control. For the same molecule, the T/C (dose: 25.0 mg/kg/injection, schedule: Q01DX009 (ip), vehicle: saline) was 103 % of control, the T/C (dose: 25.0 mg/kg/injection, schedule: Q03HX016 (ip), vehicle: Klucel (hydroxypropylcellulose) (HPC)) was 120 % of control and the T/C (dose: 25.0 mg/kg/injection, schedule: Q04DX003 (ip), vehicle: Klucel (hydroxypropylcellulose) (HPC)) was 105 % of control. For the same molecule, the T/C (dose: 25.0 mg/kg/injection, schedule: Q04DX003 (ip), vehicle: saline sonified) was 118 % of control, the T/C (dose: 32.0 mg/kg/injection, schedule: Q01DX009 (ip), vehicle: Klucel (hydroxypropylcellulose) (HPC)) was 100 % of control and 102 % of control and the T/C (dose: 40.0 mg/kg/injection, schedule: Q01DX009 (ip), vehicle: saline) was 115 % of control and 118 % of control. The T/C (dose: 50.0 mg/kg/injection, schedule: Q01DX009 (ip), vehicle: saline sonified) was 123 % of control, the T/C [2] was 99 % of control and the T/C (dose: 50.0 mg/kg/injection, schedule: Q04DX003 (ip), vehicle: Klucel (hydroxypropylcellulose) (HPC)) was 97 % of control. The T/C (dose: 50.0 mg/kg/injection, schedule: Q04DX003 (ip), vehicle: saline sonified) was 122 % of control, the T/C (dose: 64.0 mg/kg/injection, schedule: Q01DX009 (ip), vehicle: Klucel (hydroxypropylcellulose) (HPC)) was 102 % of control and 97 % of control and the T/C (dose: 75.0 mg/kg/injection, schedule: Q01DX009 (ip), vehicle: saline sonified) was 95 % of control. For the same molecule, the T/C (dose: 75.0 mg/kg/injection, schedule: Q01DX009 (ip), vehicle: saline with Tween-80) was 72 % of control, the T/C (dose: 78.6 mg/kg/injection, schedule: Q01DX005 (ip), vehicle: water) was 106 % of control and the T/C (dose: 78.6 mg/kg/injection, schedule: Q01DX009 (ip), vehicle: water) was 100 % of control. The T/C (dose: 80.0 mg/kg/injection, schedule: Q01DX009 (ip), vehicle: saline) was 122 % of control, the T/C [3] was 122 % of control and 73 % of control and the T/C (dose: 100.0 mg/kg/injection, schedule: Q04DX003 (ip), vehicle: Klucel (hydroxypropylcellulose) (HPC)) was 96 % of control. The T/C (dose: 100.0 mg/kg/injection, schedule: Q04DX003 (ip), vehicle: saline sonified) was 110 % of control, the T/C (dose: 118.0 mg/kg/injection, schedule: Q01DX005 (ip), vehicle: water) was 99 % of control and the T/C (dose: 118.0 mg/kg/injection, schedule: Q01DX009 (ip), vehicle: water) was 99 % of control. The T/C (dose: 128.0 mg/kg/injection, schedule: Q01DX009 (ip), vehicle: Klucel (hydroxypropylcellulose) (HPC)) was 101 % of control and 93 % of control, the T/C (dose: 177.0 mg/kg/injection, schedule: Q01DX005 (ip), vehicle: water) was 99 % of control and the T/C (dose: 177.0 mg/kg/injection, schedule: Q01DX009 (ip), vehicle: water) was 111 % of control. The T/C (dose: 200.0 mg/kg/injection, schedule: Q01DX009 (ip), vehicle: saline with Tween-80) was 115 % of control, the T/C (dose: 200.0 mg/kg/injection, schedule: Q03HX016 (ip), vehicle: Klucel (hydroxypropylcellulose) (HPC)) was 154 % of control and the T/C (dose: 200.0 mg/kg/injection, schedule: Q04DX003 (ip), vehicle: Klucel (hydroxypropylcellulose) (HPC)) was 98 % of control. The T/C (dose: 200.0 mg/kg/injection, schedule: Q04DX003 (ip), vehicle: saline sonified) was 110 % of control, the T/C (dose: 256.0 mg/kg/injection, schedule: Q01DX009 (ip), vehicle: Klucel (hydroxypropylcellulose) (HPC)) was 99 % of control and 88 % of control and the T/C (dose: 264.0 mg/kg/injection, schedule: Q04DX003 (ip), vehicle: saline with Tween-80) was 121 % of control. The T/C (dose: 266.0 mg/kg/injection, schedule: Q01DX005 (ip), vehicle: water) was 115 % of control, the T/C (dose: 266.0 mg/kg/injection, schedule: Q01DX009 (ip), vehicle: saline with Tween-80) was 121 % of control and the T/C (dose: 266.0 mg/kg/injection, schedule: Q01DX009 (ip), vehicle: water) was 113 % of control. The T/C (dose: 400.0 mg/kg/injection, schedule: Q01DX005 (ip), vehicle: water) was 108 % of control, the T/C (dose: 400.0 mg/kg/injection, schedule: Q01DX009 (ip), vehicle: saline with Tween-80) was 121 % of control and the T/C (dose: 400.0 mg/kg/injection, schedule: Q01DX009 (ip), vehicle: saline) was 122 % of control. For the same molecule, the T/C (dose: 400.0 mg/kg/injection, schedule: Q01DX009 (ip), vehicle: water) was 117 % of control, the T/C (dose: 400.0 mg/kg/injection, schedule: Q03HX016 (ip), vehicle: Klucel (hydroxypropylcellulose) (HPC)) was 183 % of control and the T/C (dose: 400.0 mg/kg/injection, schedule: Q04DX003 (ip), vehicle: saline with Tween-80) was 117 % of control. The T/C (dose: 512.0 mg/kg/injection, schedule: Q01DX009 (ip), vehicle: Klucel (hydroxypropylcellulose) (HPC)) was 101 % of control and 91 % of control, the T/C (dose: 600.0 mg/kg/injection, schedule: Q01DX009 (ip), vehicle: saline sonified) was 86 % of control and the T/C (dose: 600.0 mg/kg/injection, schedule: Q01DX009 (ip), vehicle: saline with Tween-80) was 111 % of control. For the same molecule, the T/C (dose: 900.0 mg/kg/injection, schedule: Q01DX009 (ip), vehicle: saline with Tween-80) was 94 % of control, the T/C (dose: 1000.0 mg/kg/injection, schedule: Q01DX009 (oral), vehicle: saline with Tween-80) was 101 % of control and the T/C (dose: 1.3 micrograms/kg/injection, schedule: Q#A X Z (ip), vehicle: water) was 91 % of control. For the same molecule, the T/C (dose: 1500.0 mg/kg/injection, schedule: Q01DX009 (oral), vehicle: saline with Tween-80) was 104 % of control, the T/C (dose: 2000.0 mg/kg/injection, schedule: Q01DX009 (oral), vehicle: saline with Tween-80) was 100 % of control and the T/C (dose: 13.4 micrograms/kg/injection, schedule: Q#A X Z (ip), vehicle: water) was 98 % of control. For the same molecule, the T/C (dose: 134.0 micrograms/kg/injection, schedule: Q#A X Z (ip), vehicle: water) was 98 % of control and the T/C (dose: 1340.0 micrograms/kg/injection, schedule: Q#A X Z (ip), vehicle: water) was 100 % of control.
For `COc1cccc(/C=N/N(C)c2c([N+](=O)[O-])cc(C(F)(F)F)cc2[N+](=O)[O-])c1O`, the T/C (dose: 60.0 mg/kg/injection, schedule: Q01DX005 (ip), vehicle: Klucel (hydroxypropylcellulose) (HPC)) was 93 % of control, the T/C (dose: 120.0 mg/kg/injection, schedule: Q01DX005 (ip), vehicle: Klucel (hydroxypropylcellulose) (HPC)) was 92 % of control and the T/C (dose: 240.0 mg/kg/injection, schedule: Q01DX005 (ip), vehicle: Klucel (hydroxypropylcellulose) (HPC)) was 87 % of control.
With `CCN(CC)[P+](C1=C(Cl)C(=O)C(Cl)=C(Cl)C1=O)(N(CC)CC)N(CC)CC` the T/C [1] was 105 % of control, the T/C (dose: 25.0 mg/kg/injection, schedule: Q01DX009 (ip), vehicle: saline with Tween-80) was 93 % of control and the T/C (dose: 50.0 mg/kg/injection, schedule: Q01DX009 (ip), vehicle: saline with Tween-80) was 103 % of control.
`Cc1ccc(/C=N/n2c(-c3ccccc3Cl)nc3ccccc3c2=O)cc1` was tested, and the T/C (dose: 50.0 mg/kg/injection, schedule: Q01DX005 (ip), vehicle: saline with Tween-80) was 96 % of control, the T/C (dose: 100.0 mg/kg/injection, schedule: Q01DX005 (ip), vehicle: saline with Tween-80) was 93 % of control and the T/C (dose: 200.0 mg/kg/injection, schedule: Q01DX005 (ip), vehicle: saline with Tween-80) was 91 % of control.
`CC(=O)CC1CCCC(C#N)N1` (stereo not given) was tested, and the T/C (dose: 12.5 mg/kg/injection, schedule: Q01DX005 (ip), vehicle: saline) was 97 % of control, the T/C (dose: 25.0 mg/kg/injection, schedule: Q01DX005 (ip), vehicle: saline) was 101 % of control and the T/C (dose: 50.0 mg/kg/injection, schedule: Q01DX005 (ip), vehicle: saline) was 100 % of control and 98 % of control.
`Cc1ncc([N+](=O)[O-])n1CCOc1c(Cl)cc(Cl)cc1CN(C)C1CCCCC1` was tested, and the T/C (dose: 3.12 mg/kg/injection, schedule: Q01DX005 (ip), vehicle: Klucel (hydroxypropylcellulose) (HPC)) was 100 % of control, the T/C (dose: 6.25 mg/kg/injection, schedule: Q01DX005 (ip), vehicle: Klucel (hydroxypropylcellulose) (HPC)) was 98 % of control and the T/C (dose: 12.5 mg/kg/injection, schedule: Q01DX005 (ip), vehicle: Klucel (hydroxypropylcellulose) (HPC)) was 105 % of control.
`O=S1(=O)CCN(Cc2ccncc2)CC1` was tested, and the T/C [2] was 100 % of control, the T/C [3] was 98 % of control and the T/C (dose: 200.0 mg/kg/injection, schedule: Q01DX009 (ip), vehicle: saline) was 100 % of control.
